For test [1], the target named is T1, Human αvβ6 (Homo sapiens, UniProt P06756+P18564).
T1 construct: purchased Bio-Techne
Briefly: competitive integrin binding assay (isoDGR-peroxidase probe), αvβ6-coated plates. To be noted: competition with isoDGR-peroxidase on αvβ6-coated plates; mean ± SE of n independent experiments (n in the column beside). As for the experimental part: Peptides were prepared by chemical synthesis; their identity and purity were checked by mass spectrometry (MS) and reverse-phase HPLC analysis. The affinity of peptides for αvβ6-coated plates was determined by competitive binding assay using an isoDGR peptide (an RGD mimetic) labeled with peroxidase as a probe for the integrin-binding site. Cell adhesion assays were carried out as described previously.
Figure S2. Competitive binding of isoDGR-peroxidase conjugate with peptide 5, 5a and 2a to αvβ6-coated microtiter plates.
The competitive binding assay was performed as previously described, using an isoDGR peptide (an RGD mimetic) labeled with peroxidase (isoDGR-HRP) as a probe for the integrin-binding site. A representative experiment (mean ± SE of 3-4 technical replicates) is shown. The resulting Ki values are shown (mean ± SE of n=3-7 independent experiments, see also Table […]
(1 picture or pasted object on this page, not shown here)
Figure S10. Biochemical characterization of 5a- and 2a-NOTA conjugates. […]
C) Competitive binding of isoDGR-HRP to αvβ6-coated microtiter plates with peptides and peptide-NOTA conjugates, as measured by competitive ELISA. […]
D) Stability of 5a-NOTA after labeling with 18F, as determined by RP-HPLC analysis using an […]

Test [2] has as its target T1, Human αvβ6. On the set-up: method as in PMID 31755501. To be noted: competition with isoDGR-peroxidase on αvβ6-coated plates; mean ± SE of n independent experiments; ref [25]; read-out: Ki (competitive integrin binding assay) Human αvβ6; cited from earlier work.
The target of the next test is T2, Human αvβ8 (Homo sapiens, UniProt P06756+P26012).
T2 construct: purchased Bio-Techne
Set-up: method as in PMID 31755501. Particulars: competition with isoDGR-peroxidase; mean ± SE of n independent experiments; ref [25]; read-out: Ki (competitive integrin binding assay) Human αvβ8; cited from earlier work.

Like-named read-outs stand apart in the source and are kept apart here. Bridge positions count the residues as written; N and C are the ends. Square brackets hold non-standard residues; d marks the D form. Ends that are not written are not given here. Peptide text beside a SMILES is read from it. * marks the point of attachment. X2 = O=C(O)CN1CCN(CC(=O)O)CCN(CC(=O)NCCN2C(=O)CC(*)C2=O)CC1; Lys(N3) = [N-]=[N+]=NCCCC[C@H](N)C(=O)O; Pra = C#CC[C@H](N)C(=O)O

T1 sequence (P06756 31-992 limits assumed): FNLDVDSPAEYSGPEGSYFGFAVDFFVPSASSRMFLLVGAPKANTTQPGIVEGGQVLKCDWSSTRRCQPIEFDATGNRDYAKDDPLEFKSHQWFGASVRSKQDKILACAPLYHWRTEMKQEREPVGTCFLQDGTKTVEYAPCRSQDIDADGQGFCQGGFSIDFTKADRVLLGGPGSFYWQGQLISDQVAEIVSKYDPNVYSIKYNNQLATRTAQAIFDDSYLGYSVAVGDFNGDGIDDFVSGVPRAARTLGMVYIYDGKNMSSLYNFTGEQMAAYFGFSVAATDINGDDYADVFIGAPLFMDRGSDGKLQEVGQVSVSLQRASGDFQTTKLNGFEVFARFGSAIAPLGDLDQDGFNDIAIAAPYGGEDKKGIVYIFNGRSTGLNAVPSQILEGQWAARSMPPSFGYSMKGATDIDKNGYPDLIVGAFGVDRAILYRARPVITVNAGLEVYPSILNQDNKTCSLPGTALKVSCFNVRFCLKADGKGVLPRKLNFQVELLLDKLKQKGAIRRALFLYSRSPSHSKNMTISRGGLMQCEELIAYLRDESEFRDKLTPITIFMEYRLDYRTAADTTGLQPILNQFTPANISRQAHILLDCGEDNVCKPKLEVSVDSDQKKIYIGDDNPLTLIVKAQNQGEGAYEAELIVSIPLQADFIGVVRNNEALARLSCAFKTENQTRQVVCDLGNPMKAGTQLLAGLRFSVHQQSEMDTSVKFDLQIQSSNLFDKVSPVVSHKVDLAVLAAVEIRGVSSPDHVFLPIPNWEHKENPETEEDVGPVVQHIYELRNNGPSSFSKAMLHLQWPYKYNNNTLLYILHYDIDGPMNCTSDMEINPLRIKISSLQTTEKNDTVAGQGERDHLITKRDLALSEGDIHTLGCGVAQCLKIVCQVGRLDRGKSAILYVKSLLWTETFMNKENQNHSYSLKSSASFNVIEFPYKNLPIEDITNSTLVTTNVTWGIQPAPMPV
T1 sequence (P18564 22-707 limits assumed): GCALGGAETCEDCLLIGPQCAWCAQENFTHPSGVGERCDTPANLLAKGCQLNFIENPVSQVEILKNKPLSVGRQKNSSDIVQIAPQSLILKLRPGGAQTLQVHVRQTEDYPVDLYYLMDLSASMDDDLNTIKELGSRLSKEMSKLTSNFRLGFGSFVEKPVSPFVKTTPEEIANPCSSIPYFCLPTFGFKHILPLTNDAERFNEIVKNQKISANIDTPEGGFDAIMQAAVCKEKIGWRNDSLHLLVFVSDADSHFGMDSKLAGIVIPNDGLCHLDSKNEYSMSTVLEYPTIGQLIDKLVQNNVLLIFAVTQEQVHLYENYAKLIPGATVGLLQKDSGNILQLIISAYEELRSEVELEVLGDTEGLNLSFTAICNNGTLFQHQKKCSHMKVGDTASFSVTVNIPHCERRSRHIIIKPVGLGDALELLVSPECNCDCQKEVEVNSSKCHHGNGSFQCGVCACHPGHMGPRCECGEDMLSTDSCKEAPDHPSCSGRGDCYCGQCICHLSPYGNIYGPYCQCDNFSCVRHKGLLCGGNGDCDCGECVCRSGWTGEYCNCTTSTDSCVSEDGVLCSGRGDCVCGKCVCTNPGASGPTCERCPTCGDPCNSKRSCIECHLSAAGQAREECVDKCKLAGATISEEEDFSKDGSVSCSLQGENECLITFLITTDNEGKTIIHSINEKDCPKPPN
T2 sequence (P06756 31-992 limits assumed): as the sequence (P06756 31-992 limits assumed) above
T2 sequence (P26012 43-684 limits assumed): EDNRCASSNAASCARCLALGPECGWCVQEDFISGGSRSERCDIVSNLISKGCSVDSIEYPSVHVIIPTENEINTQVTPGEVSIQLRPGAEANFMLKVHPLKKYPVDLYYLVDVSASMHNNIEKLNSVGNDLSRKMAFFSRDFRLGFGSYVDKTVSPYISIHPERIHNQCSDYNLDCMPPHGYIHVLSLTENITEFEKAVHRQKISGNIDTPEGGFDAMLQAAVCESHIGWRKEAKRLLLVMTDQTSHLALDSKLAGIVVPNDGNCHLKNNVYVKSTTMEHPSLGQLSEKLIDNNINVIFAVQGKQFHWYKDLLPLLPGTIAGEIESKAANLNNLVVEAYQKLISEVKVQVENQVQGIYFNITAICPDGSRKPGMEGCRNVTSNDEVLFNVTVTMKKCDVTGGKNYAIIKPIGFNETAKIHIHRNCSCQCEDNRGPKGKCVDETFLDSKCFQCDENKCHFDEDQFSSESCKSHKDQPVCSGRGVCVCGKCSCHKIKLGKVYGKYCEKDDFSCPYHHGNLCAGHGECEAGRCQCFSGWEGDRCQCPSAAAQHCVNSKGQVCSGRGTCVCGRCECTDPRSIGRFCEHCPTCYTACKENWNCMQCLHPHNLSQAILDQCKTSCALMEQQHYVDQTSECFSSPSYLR

For `CC[C@H](C)[C@H](NC(=O)[C@H](CCCNC(=N)N)NC(=O)[C@H](CCC(=O)O)NC(=O)[C@H](CCC(=O)O)NC(=O)CNC(=O)[C@H](CCCNC(=N)N)NC(=O)[C@H](CC(C)C)NC(=O)[C@@H](NC(=O)[C@H](CCC(=O)O)NC(=O)[C@H](Cc1ccccc1)NC(=O)[C@@H](N)CSC1CC(=O)N(CCNC(=O)CN2CCN(CC(=O)O)CCN(CC(=O)O)CC2)C1=O)[C@@H](C)O)C(=O)N[C@@H](CC(C)C)C(=O)N[C@@H](CO)C(=O)N[C@H](C(=O)N[C@@H](CC(C)C)C(=O)N[C@@H](CCCNC(=N)N)C(=O)N[C@@H](Cc1c[nH]cn1)C(=O)N[C@@H](CCC(N)=O)C(=O)N[C@@H](CC(N)=O)C(=O)N[C@@H](CC(C)C)C(=O)N[C@@H](CC(C)C)C(=O)N[C@@H](CCCCN)C(=O)N[C@@H](CCC(=O)O)C(=O)N[C@@H](CC(C)C)C(=O)N[C@@H](CCC(N)=O)C(=O)N[C@@H](CC(=O)O)C(N)=O)[C@@H](C)CC` (some centres unmarked) [2a-NOTA] (H-C(X2)FETLRGEERILSILRHQNLLKELQD-NH2), the Ki (usually the equilibrium dissociation constant of an inhibitor or competing ligand from its target) at Human αvβ6 [1] is above 1000 nM.
As for CFETLRGEERILSILRHQNLLKELQD-NH2 [2a], the Ki at Human αvβ6 [2] and on Human αvβ8 was above 50000 nM throughout.
CIRLDLELINFQSDLQHELLKTRLRG [5a-Scr] gave an inhibition constant Ki on Human αvβ6 [1] above 200 nM.
Regarding “ac-FETLRGDLRILSILRX1QNLX2KELQD-CONH2 (sidechain bridge or staple) (Ac-FETLRGDLRILSILR[Pra]QNL[Lys(N3)]KELQD-NH2; triazole 16-20; not fully specified) [compound 5, chromogranin A-derived peptide with RGDL motif and triazole-stapled alpha-helix, previously developed by the authors]”, the Ki in the test with Human αvβ6 [2] is 0.6 ± 0.1 nM.

The record behind these values is article PMC9760430, “A stapled chromogranin A-derived peptide homes in on tumors that express αvβ6 or αvβ8 integrins” (International Journal of Biological Sciences, 2023).
